“Also recorded” adds a separate entry of the source.
Experiments:
TSC-STB differentiation = assay: TSC-STB system, overall evaluation of anti-aging effect; format: cell-based, human; details: summary statement
Description: (§1) Same number of TSCs in robust growing state were seeded in STBM with/without a candidate agent in a black Polystyrene TC-treated 96-well Microplate pre-coated with 10 mg/ml Geltrex™ LDEV-Free Reduced Growth Factor Basement Membrane Matrix or Matrigel (1.5×10^4-2×10^4 cells per well). On each screening microplate, 3 wells of control (cells only with 0.5% DMSO in 100 μL STB growth medium) and 3 wells of positive control (some well-known anti-ageing agents in certain concentration) were included. The cells were cultured at 37° C. and 5% CO2 with saturating humidity and differentiated into mature STB in the medium for 6 days. Cell morphology was monitored daily under a microscope. The signal readouts of reporter molecules was assessed on day 2, day 4, and day 6. On day 6, cells in each well were fixed and stained with DAPI or Hoechst, and cell count and intensity (both reporter and nuclei) were assessed using high content microscopy to assess the agent's effects and cell viability. The agents, especially those that affect cell viability will also be tested at different concentrations and at different day during the STB differentiation process.
(§2) First, a known anti-aging drug Rapamycin was tested. TSCs in good growing state were seeded at 1.0×10^4-2×10^4 cells per well in a 24-well plate pre-coated with 10 mg/mL Geltrex™ LDEV-Free Reduced Growth Factor Basement Membrane Matrix or Matrigel. After 24 hours, 3 wells continued in TSCM; 3 wells switched to STBM+DMSO; 3 wells switched to STBM+Rapamycin (500 nM). The media was changed every 2-3 days. On day 6, β-hCG was measured by ELISA as described in Example 1. Expression of aging-related marker genes (e.g., CGA and CGB3) was measured by RT-qPCR as described in Example 1.

[1] = tested on: TSCs differentiating towards STBs; assay: RT-qPCR of aging-related marker genes during TSC-STB differentiation; format: cell-based, human; details: FIG. 4H
Description: (§3) To generate the hTSC cell lines, the single cell suspension of hEPSCs were plated on a 6-well plate (1-2×10^3/well) pre-coated with 10 mg/mL Geltrex™ LDEV-Free Reduced Growth Factor Basement Membrane Matrix or Matrigel and cultured in human trophoblast stem cell medium (hTSCM) for 7-10 days. Then single colonies of the differentiated cells on the 6-well plate were picked and expanded. The expanded cell lines were validated with trophoblast markers and RNA-Seq analysis. The established TSC cell lines were maintained in the hTSCM medium and passaged at ratio 1:4-1:5 every 3-5 days. The hTSCM was DMEM/F12 based medium supported with: 110 μM β-mercaptoethanol, 0.2% FBS, 0.5% Penicillin-Streptomycin-Glutamine, 0.3% BSA, 1×ITS-X supplement, 50.0 μg/mL Vc, 50.0 ng/ml EGF, 2.0 μM CHIR99021, 0.5 μM A83-01, 1.0 μM SB431542, 0.8 μM VPA, and 5.0 μM Y27632. Established TSC cells were seeded at 1.0×10^5-2×10^5 cells per well in a six-well plate pre-coated with 10 mg/mL Geltrex™ LDEV-Free Reduced Growth Factor Basement Membrane Matrix or Matrigel, and were induced to differentiate into STBs after culturing in syncytiotrophoblasts medium (STBM) for around 6 days. The STBM comprises: DMEM/F12 supplemented with 110 μM β-mercaptoethanol, 0.5% Penicillin-Streptomycin, 0.3% BSA, 1×ITS-X, 2.5 μM Y27632, 2 μM Forskolin, and 4% KnockOut Serum Replacement. The cells became early syncytiotrophoblasts on day 2-3, and mature syncytiotrophoblasts around day 6.
RT-qPCR: Total RNA was extracted using RNeasy Mini Kit (Qiagen) per manufacturer specification. Extracted RNA was then reverse transcribed to cDNA using Fastking gDNA diselling RT SuperMix (Tiangen). Gene expression was measured using PowerUp™ SYBR™ Green Master Mix (Applied Biosystems) and StepOnePlus™ Real-Time PCR (Applied Biosystems) with the primers listed in Table E1A. Raw gene expression data was normalized to GAPDH by using the ΔCt method. Statistical analysis was carried out using either one/two-tailed student's t-test in Prism 8 (GraphPad).
as §2

[2] = tested on: TSCs differentiating towards STBs; assay: Western blot of β-hCG during TSC-STB differentiation; format: cell-based, human; details: at certain / different concentrations, FIG. 4I
Description: Western blot: The proteins were extracted with RIPA lysis (thermofisher, Cat. 89901) and Pierce Protease Inhibitor Mini Tablets (thermofisher, Cat. A32953). Protein concentrations were measured with Pierce™ BCA Protein Assay Kits (thermofisher, Cat. 23227). Then samples with certain amount of NuPAGE™ LDS Sample Buffer (4×) (thermofisher, Cat. NP0008) were boiled at 70 degree for 10 min. Boiled samples were loaded with the same amount and separated in 12% polyacrylamide gels (Thermofisher Cat. NP0343BOX) and transferred to PVDF membranes using the Bio-Rad transblot turbo system according to the manufacturer's guidance. Images were developed by the ChemiDoc Imaging System and processed with ImageJ 1.47v. The following primary antibodies were used: anti-GAPDH (thermosfisher, Cat. AM4300, 1:10000 for western blot), anti-Ki67 (thermofisher, Cat. MA5-14520, 1:1000 for western blot, 1:200 for IF), anti-HERVK-gag (Austral Biologicals, Cat. HERM-1811-5, 1:200 for IF), anti-TRF1 (Abcam, Cat. ab 10579, 1:100 for IF), anti-ZO-1 (CST, Cat. 13663, 1:200 for IF), anti-CGB3 (Abcam, Cat. Ab131170, 1:200 for IF), anti-H3 (CST, Cat. 4499 1:2000 for western blot), anti-H3K9mc3 (Abcam, Cat. ab8898, 1:1000 for western blot), anti-E-cadherin (CST, Cat. 14472, 1:200 for IF), anti-p38 MAPK (thermofisher, Cat. 338700, 1:1000 for western blot), anti-LaminB1 (thermofisher, Cat. 702972, 1:1000 for western blot, 1:200 for IF), anti-p27 Kip1 (thermofisher, Cat. PA527188, 1:1000 for western blot), anti-Hp1 gamma (thermofisher, Cat. MA3054, 1:1000 for western blot, 1:300 for IF), anti-SIRT1 (CST, Cat. 8469S, 1:1000 for western blot), anti-SIRT6 (CST, Cat. 12486S, 1:1000 for western blot), anti-SIRT3 (thermofisher, Cat. MA514910, 1:1000 for western blot), anti-p53 (thermofisher, Cat. MA512557, 1:1000 for western blot, 1:200 for IF), anti-gammaH2AX (CST, Cat. 2577s, 1:1000 for western blot, 1:200 for IF), anti-IL-6 (thermofisher, Cat. MA523698, 1:50 for IF), anti-hCG (thermofisher, Cat. 14-6508-82, 1:1000 for western blot, 1:200 for IF). […]

[3] = tested on: TSCs differentiating towards STBs; assay: Cell morphology, viability and proliferation during TSC-STB differentiation; format: cell-based, human; details: for morphology: appearance of multinucleated STB cells: treated cells during TSC-STB differentiation, FIG. 4E
Description: as §3, §1, §2

[4] = tested on: TSCs differentiating towards STBs; assay: ELISA of secreted β-hCG during TSC-STB differentiation; format: cell-based, human; details: compared to the DMSO control group; FIG. 4F
Description: as §3, with “The STBM comprises: DMEM/F12 supplemented with 110 μM β-mercaptoethanol, 0.5% Penicillin-Streptomycin, 0.3% BSA, 1×ITS-X, 2.5 μM Y27632, 2 μM Forskolin, and 4% KnockOut Serum Replacement. The cells became early syncytiotrophoblasts on day 2-3, and mature syncytiotrophoblasts around day 6.” left out
First, a known anti-aging drug Rapamycin was tested. […] On day 6, β-hCG was measured by ELISA as described in Example 1. Expression of aging-related marker genes (e.g., CGA and CGB3) was measured by RT-qPCR as described in Example 1.

model organisms = details: yeast, worms, flies, male mice; background; cited from earlier work
[5] = background; cited from earlier work

Row | Compound | anti-aging effect in the TSC-STB system (TSC-STB differentiation) | CGA expression ([1]; 1 μM) | CGA expression ([1]; 10 μM) | morphology: appearance of multinucleated STB cells [3] | other results
1 | O=c1c(O)c(-c2ccc(O)c(O)c2)oc2cc(O)ccc12 [Fisetin] | showed anti-aging effects as expected | reduced | increasing |  | β-hCG expression (Western blot) [2]: reduced; β-hCG expression (Western blot) ([2]; listed as Fisctin): significantly reduce
2 | CC(C)C[C@H](NC(=O)OCc1ccccc1)C(=O)N[C@@H](C[C@@H]1CCNC1=O)C(O)S(=O)(=O)[O-].[Na+] (some centres unmarked) [GC376] |  |  |  | delayed appearance of multinucleated STB cells | 
3 | CC(C)n1nc(-c2ccc3oc(N)nc3c2)c2c(N)ncnc21 [INK128] |  |  |  | delayed appearance of multinucleated STB cells | secreted β-hCG level (ELISA) [4]: significantly lower; β-hCG expression (Western blot) [2]: significantly reduce; also recorded: reduced
4 | CC(C)C(=O)OC[C@H]1O[C@@H](n2ccc(NO)nc2=O)[C@H](O)[C@@H]1O [Molnupiravir] |  |  |  | delayed appearance of multinucleated STB cells | 
5 | NC(=O)c1ccc[n+]([C@@H]2O[C@H](COP(=O)([O-])O)[C@@H](O)[C@H]2O)c1 [NMN, Nicotinamide mononucleotide] | showed anti-aging effects as expected | reduced | increasing |  | 
6 | O=c1c(O)c(-c2ccc(O)c(O)c2)oc2cc(O)cc(O)c12 [Quercetin] | showed anti-aging effects as expected | decrease | decrease |  | 
7 | CO[C@H]1C[C@@H]2CC[C@@H](C)[C@@](O)(O2)C(=O)C(=O)N2CCCC[C@H]2C(=O)O[C@H]([C@H](C)C[C@@H]2CC[C@@H](O)[C@H](OC)C2)CC(=O)[C@H](C)/C=C(\C)[C@@H](O)[C@@H](OC)C(=O)[C@H](C)C[C@H](C)/C=C/C=C/C=C/1C [Rapamycin] |  |  |  |  | cell viability or proliferation ([3]; 500 nM, FIG. 4A): did not affect
8 | NCCCCNCCCN [Spermdine] |  | decrease | decrease |  | 
9 | CC(=O)Oc1ccccc1C(=O)O [aspirin] |  |  |  |  | lifespan in some model organisms (model organisms): extend lifespan; side effects in humans [5]: increase the risk of gastrointestinal bleeding
10 | Cc1ccc(-c2cc(C(F)(F)F)nn2-c2ccc(S(N)(=O)=O)cc2)cc1 [celecoxib] |  |  |  |  | side effects in humans [5]: major bleeding events and increase in all-cause mortality
11 | CC(C)Cc1ccc(C(C)C(=O)O)cc1 (centres unmarked) [ibuprofen] |  |  |  |  | lifespan in some model organisms (model organisms): extend lifespan; side effects in humans [5]: major bleeding events and increase in all-cause mortality
12 | CN(C)C(=N)N=C(N)N [metformin] | showed anti-aging effects as expected |  |  |  | 
13 | STM2457 |  |  |  | delayed appearance of multinucleated STB cells | 
